Reference: patent publication US9296758B2, “2-quinolinyl-acetic acid derivatives as HIV antiviral compounds” (GILEAD SCIENCES, INC., priority 2010, dated 2016)

test system: HIV-IIIb; experiment: Test A: Antiviral Assays in MT4 Cells; format: cell-based; details: Human immunodeficiency virus 1, IIIB, MT4, 120 h, MT-4 cells infected with HIV-IIIb (0.004 m.o.i.), 5 days of incubation, CellTiter-Glo chemiluminescence readout
Description: Test A: Antiviral Assays in MT4 Cells For the antiviral assay utilizing MT-4 cells, 0.4 μL of 189X test concentration of 3-fold serially diluted compound in DMSO was added to 40 μL of cell growth medium (RPMI 1640, 10% FBS, 1% penicillin/Streptomycin, 1% L-Glutamine, 1% HEPES) in each well of 384-well assay plates (10 concentrations) in quadruplicate. 1 mL aliquots of 2×10e6 MT-4 cells are pre-infected for 1 and 3 hrs respectively, @ 37° C. with 25 μL (MT4) or of either cell growth medium (mock-infected) or a fresh 1:250 dilution of an HIV-IIIb concentrated ABI stock (0.004 m.o.i. for MT4 cells). Infected and uninfected cells are diluted in cell growth medium and 35 uL of 2000 (for MT4) cells is added to each well of the assay plates. Assay plates were then incubated in a 37° C. incubator. After 5 days of incubation, 25 μl of 2× concentrated CellTiter-Glo™ Reagent (catalog #G7573, Promega Biosciences, Inc., Madison, Wis.) was added to each well of the assay plate. Cell lysis was carried out by incubating at room temperature for 2-3 min and then chemiluminescence was read using the Envision reader (PerkinElmer).

Row | SMILES | EC50 [µM]
1 | Cc1cc2nc(-c3ccc(Cl)cc3)ccc2c(-c2ccc(Cl)cc2)c1[C@H](OC(C)(C)C)C(=O)O [Compound 27, (S)-2-(2,5-bis(4-chlorophenyl)-7-methylquinolin-6-yl)-2-tert-butoxyacetic acid] | 0.023
2 | Cc1cc2nc(C3CC3)ccc2c(-c2ccc(Cl)cc2)c1[C@H](OC(C)(C)C)C(=O)O [Compound 28, (S)-2-tert-butoxy-2-(5-(4-chlorophenyl)-2-cyclopropyl-7-methylquinolin-6-yl)acetic acid] | 0.043
3 | Cc1cc2nc(N3CCOCC3)ccc2c(-c2ccc(Cl)cc2)c1[C@H](OC(C)(C)C)C(=O)O [Compound 29, (S)-2-tert-Butoxy-2-(5-(4-chlorophenyl)-7-methyl-2-morpholinoquinolin-6-yl)acetic acid] | 0.939
4 | Cc1cc2nc(NC3CC3)ccc2c(-c2ccc(Cl)cc2)c1[C@H](OC(C)(C)C)C(=O)O [Compound 30, (S)-2-tert-butoxy-2-(5-(4-chlorophenyl)-2-(cyclopropylamino)-7-methylquinolin-6-yl)acetic acid] | 0.153
5 | CNc1ccc2c(-c3ccc(Cl)cc3)c([C@H](OC(C)(C)C)C(=O)O)c(C)cc2n1 [Compound 31, (S)-2-tert-butoxy-2-(5-(4-chlorophenyl)-7-methyl-2-(methylamino)quinolin-6-yl)acetic acid] | 0.105
6 | Cc1cc2nc(N(C)C)ccc2c(-c2ccc(Cl)cc2)c1[C@H](OC(C)(C)C)C(=O)O [Compound 32, (S)-2-tert-Butoxy-2-(5-(4-chlorophenyl)-2-(dimethylamino)-7-methylquinolin-6-yl)acetic acid] | 0.108
7 | Cc1cc2nc(NCc3ccncc3)ccc2c(-c2ccc(Cl)cc2)c1[C@H](OC(C)(C)C)C(=O)O [Compound 33, (S)-2-tert-Butoxy-2-(5-(4-chlorophenyl)-7-methyl-2-(pyridin-4-ylmethylamino)quinolin-6-yl)acetic acid] | 0.095
8 | Cc1cc2nc(NCCN3CCOCC3)ccc2c(-c2ccc(Cl)cc2)c1[C@H](OC(C)(C)C)C(=O)O [Compound 34, (S)-2-tert-Butoxy-2-(5-(4-chlorophenyl)-7-methyl-2-(2-morpholinoethylamino)quinolin-6-yl)acetic acid] | 0.266
9 | COCCOCCCNc1ccc2c(-c3ccc(Cl)cc3)c([C@H](OC(C)(C)C)C(=O)O)c(C)cc2n1 [Compound 35, (S)-2-tert-butoxy-2-(5-(4-chlorophenyl)-2-(3-(2-methoxyethoxy)propylamino)-7-methylquinolin-6-yl)acetic acid] | 0.157
10 | Cc1cc2nc(C(C)(C)C)ccc2c(-c2ccc3c4c(ccnc24)CCO3)c1[C@H](OC(C)(C)C)C(=O)O [Compound 36, (S)-2-tert-butoxy-2-((R)-2-tert-butyl-5-(2,3-dihydropyrano[4,3,2-de]quinolin-7-yl)-7-methylquinolin-6-yl)acetic acid] | 0.02
11 | Cc1cc2nc(C#Cc3ccccc3)ccc2c(-c2ccc(Cl)cc2)c1[C@H](OC(C)(C)C)C(=O)O [Compound 37A, (S)-2-tert-butoxy-2-(5-(4-chlorophenyl)-7-methyl-2-(phenylethynyl)quinolin-6-yl)acetic acid] | 0.036
12 | Cc1cc2nc(CCc3ccccc3)ccc2c(-c2ccc(Cl)cc2)c1[C@H](OC(C)(C)C)C(=O)O [Compound 37B, (S)-2-tert-butoxy-2-(5-(4-chlorophenyl)-7-methyl-2-phenethylquinolin-6-yl)acetic acid] | 0.046
13 | Cc1cc2nc(C#CC3CC3)ccc2c(-c2ccc(Cl)cc2)c1[C@H](OC(C)(C)C)C(=O)O [Compound 38, (S)-2-tert-butoxy-2-(5-(4-chlorophenyl)-2-(cyclopropylethynyl)-7-methylquinolin-6-yl)acetic acid] | 0.068
14 | Cc1cc2nc(CCC3CC3)ccc2c(-c2ccc(Cl)cc2)c1[C@H](OC(C)(C)C)C(=O)O [Compound 39, (S)-2-tert-butoxy-2-(5-(4-chlorophenyl)-2-(2-cyclopropylethyl)-7-methylquinolin-6-yl)acetic acid] | 0.011
15 | Cc1cc2nc(C(C)C)ccc2c(-c2ccc3c4c(ccnc24)CCO3)c1[C@H](OC(C)(C)C)C(=O)O [Compound 46, (S)-2-tert-Butoxy-2-((R)-5-(2,3-dihydropyrano[4,3,2-de]quinolin-7-yl)-2-isopropyl-7-methylquinolin-6-yl)acetic acid] | 0.02
16 | CCC(C)c1ccc2c(-c3ccc4c5c(ccnc35)CCO4)c([C@H](OC(C)(C)C)C(=O)O)c(C)cc2n1 (stereo partly drawn) [Compound 49, (2S)-2-tert-Butoxy-2-((5R)-2-sec-butyl-5-(2,3-dihydropyrano[4,3,2-de]quinolin-7-yl)-7-methylquinolin-6-yl)acetic acid] | 0.027
17 | Cc1cccc(C)c1-c1ccc2c(-c3ccc4c5c(ccnc35)CCO4)c([C@H](OC(C)(C)C)C(=O)O)c(C)cc2n1 [Compound 54, (S)-2-tert-Butoxy-2-((R)-5-(2,3-dihydropyrano[4,3,2-de]quinolin-7-yl)-2-(2,6-dimethylphenyl)-7-methylquinolin-6-yl)acetic acid] | 0.087
18 | Cc1cc2c(ccc(=O)n2-c2ccc(Cl)cc2)c(-c2ccc(Cl)cc2)c1[C@H](OC(C)(C)C)C(=O)O [Compound 59, (S)-2-(1,5-Bis(4-chlorophenyl)-7-methyl-2-oxo-1,2-dihydroquinolin-6-yl)-2-tert-butoxyacetic acid] | 0.321
19 | Cc1cc2c(ccc3nc(C(C)C)cn32)c(-c2ccc3c4c(ccnc24)CCO3)c1[C@H](OC(C)(C)C)C(=O)O [Compound 60, (S)-2-tert-Butoxy-2-((R)-6-(2,3-dihydropyrano[4,3,2-de]quinolin-7-yl)-2-isopropyl-8-methylimidazo[1,2-a]quinolin-7-yl)acetic acid] | 0.305
20 | Cc1cc2c(ccc3nccn32)c(-c2ccc(Cl)cc2)c1[C@H](OC(C)(C)C)C(=O)O [Compound 62, (S)-2-tert-Butoxy-2-(6-(4-chlorophenyl)-8-methylimidazo[1,2-a]quinolin-7-yl)acetic acid] | 0.072
21 | Cc1cc2c(ccc3nncn32)c(-c2ccc(Cl)cc2)c1[C@H](OC(C)(C)C)C(=O)O [Compound 63, (S)-2-tert-butoxy-2-(6-(4-chlorophenyl)-8-methyl-[1,2,4]triazolo[4,3-a]quinolin-7-yl)acetic acid] | 0.183
22 | Cc1cc2c(ccc3nnnn32)c(-c2ccc(Cl)cc2)c1[C@H](OC(C)(C)C)C(=O)O [Compound 64, (S)-2-tert-butoxy-2-(6-(4-chlorophenyl)-8-methyltetrazolo[1,5-a]quinolin-7-yl)acetic acid] | 0.29
23 | Cc1cc2nc(OCc3ccccc3)ccc2c(-c2ccc(Cl)cc2)c1[C@H](OC(C)(C)C)C(=O)O [Compound 65A, (S)-2-(2-(benzyloxy)-5-(4-chlorophenyl)-7-methylquinolin-6-yl)-2-tert-butoxyacetic acid] | 0.085
24 | Cc1cc2c(ccc(=O)n2Cc2ccccc2)c(-c2ccc(Cl)cc2)c1[C@H](OC(C)(C)C)C(=O)O [Compound 65B, (S)-2-(1-benzyl-5-(4-chlorophenyl)-7-methyl-2-oxo-1,2-dihydroquinolin-6-yl)-2-tert-butoxyacetic acid] | 0.055
25 | COc1ccc2c(-c3ccc(Cl)cc3)c([C@H](OC(C)(C)C)C(=O)O)c(C)cc2n1 [Compound 66, (S)-2-tert-butoxy-2-(5-(4-chlorophenyl)-2-methoxy-7-methylquinolin-6-yl)acetic acid] | 0.297
26 | Cc1cc2c(ccc(=O)n2C)c(-c2ccc(Cl)cc2)c1[C@H](OC(C)(C)C)C(=O)O [Compound 67, (S)-2-tert-butoxy-2-(5-(4-chlorophenyl)-1,7-dimethyl-2-oxo-1,2-dihydroquinolin-6-yl)acetic acid] | 0.273
27 | Cc1cc2nc(-c3ccn[nH]3)ccc2c(-c2ccc(Cl)cc2)c1[C@H](OC(C)(C)C)C(=O)O [Compound 70, (S)-2-tert-Butoxy-2-(5-(4-chlorophenyl)-7-methyl-2-(1H-pyrazol-5-yl)quinolin-6-yl)acetic acid] | 0.206
28 | Cc1cc2nc(-c3ccncc3)ccc2c(-c2ccc(Cl)cc2)c1[C@H](OC(C)(C)C)C(=O)O [Compound 73, (S)-2-tert-butoxy-2-(5-(4-chlorophenyl)-7-methyl-2-(pyridin-4-yl)quinolin-6-yl)acetic acid] | 0.247
29 | Cc1cc2nc(-c3cccnc3)ccc2c(-c2ccc(Cl)cc2)c1[C@H](OC(C)(C)C)C(=O)O [Compound 74, (S)-2-tert-butoxy-2-(5-(4-chlorophenyl)-7-methyl-2-(pyridin-3-yl)quinolin-6-yl)acetic acid] | 0.092
30 | Cc1cc2nc(-c3cscn3)ccc2c(-c2ccc(Cl)cc2)c1[C@H](OC(C)(C)C)C(=O)O [Compound 76, (S)-2-tert-butoxy-2-(5-(4-chlorophenyl)-7-methyl-2-(thiazol-4-yl)quinolin-6-yl)acetic acid] | 0.267

same assay, conditions: MT-4 cells infected with HIV-IIIb (0.004 m.o.i.), 5 days of incubation, CellTiter-Glo chemiluminescence readout

Row | SMILES | EC50 [µM]
31 | Cc1cc2nc(-c3cccs3)ccc2c(-c2ccc3c4c(ccnc24)CCO3)c1[C@H](OC(C)(C)C)C(=O)O [Compound 69, (S)-2-tert-butoxy-2-((R)-5-(2,3-dihydropyrano[4,3,2-de]quinolin-7-yl)-7-methyl-2-(thiophen-2-yl)quinolin-6-yl)acetic acid] | 0.082
